Measurements: the RepoRT retention time repository (doi:10.1016/j.foodchem.2015.11.070)

Experiment: Thermo Scientific Hypersil GOLD aQ, 100 × 2.1 mm, 1.9 µm, 30 °C, 0.3 mL/min, estimated dead time 0.73 min; A: water + 0.01% formic acid + 4 mM ammonium formate; B: methanol + 0.01% formic acid + 4 mM ammonium formate; gradient (min/%B) 0/5 1/5 8/100 12/100
Settings: stereoisomer not certain

Row | SMILES | LC retention time
1 | CC(C)c1cc(Oc2ccccc2)cc(C(C)C)c1NC(=S)NC(C)(C)C | 11 min
2 | CCC(C)c1cc([N+](=O)[O-])cc([N+](=O)[O-])c1OC(=O)OC(C)C (centres undefined) | 9.22 min
3 | CC(Cc1ccc(C(C)(C)C)cc1)CN1CCCCC1 (centres undefined) | 9.29 min
4 | CC(C)N1C(=O)N(c2ccccc2)CSC1=NC(C)(C)C | 10.7 min
5 | CC(C)(C)C(O)C(Oc1ccc(-c2ccccc2)cc1)n1cncn1 (centres undefined) | 10.3 min
6 | COP(=O)(NC(C)=O)SC (centres undefined) | 1.58 min
7 | CCOP(=S)(Oc1ccc(C#N)cc1)c1ccccc1 (centres undefined) | 8.72 min
8 | Cc1nnc(-c2ccccc2)c(=O)n1N | 7.23 min
9 | CCOc1ccc(C(C)(C)COCc2cccc(Oc3ccccc3)c2)cc1 | 11.7 min
10 | CNC(=O)Oc1cccc2c1OC(C)(C)O2 | 8.4 min
11 | C=CC=CCC1=C(C)C(OC(=O)C2C(C=C(C)C(=O)OC)C2(C)C)CC1=O (centres undefined) | 10.3 min
12 | CCOP(=S)(OCC)Oc1cc(C)nc(C(C)C)n1 | 10.2 min
13 | CNC(=O)Oc1cc(C)cc(C(C)C)c1 | 9.52 min
14 | COCC(=O)N(c1c(C)cccc1C)C(C)C(=O)OC (centres undefined) | 9.04 min
15 | CCNC(=O)NC(=O)C(C#N)=NOC | 8.63 min
16 | COC(=O)C(C)N(C(=O)Cc1ccccc1)c1c(C)cccc1C (centres undefined) | 10.2 min
17 | CCOP(=S)(OCC)SCCSCC | 10.4 min
18 | CCSCCSP(=O)(OC)OC | 8.74 min
19 | CC1(c2ccc(Oc3ccccc3)cc2)OC(=O)N(Nc2ccccc2)C1=O (centres undefined) | 10.2 min
20 | CC(C)(C)c1ccc(CCOc2ncnc3ccccc23)cc1 | 11.8 min
21 | CCOP(=S)(OCC)SCSC(C)(C)C | 7.2 min
22 | CSC(C)=NOC(=O)N(C)SN(C)C(=O)ON=C(C)SC | 8.88 min
23 | CCCCOC(=O)N(C)SN(C)C(=O)Oc1cccc2c1OC(C)(C)C2 | 10.6 min
24 | CCOP(=O)(SC(C)CC)SC(C)CC (centres undefined) | 10.5 min

Row | SMILES | LC retention time
25 | C=CC=CCC1=C(C)C(OC(=O)C2C(C=C(C)C)C2(C)C)CC1=O (centres undefined) | 11 min
26 | C=C(C)C1Cc2c(ccc3c2OC2COc4cc(OC)c(OC)cc4C2C3=O)O1 (centres undefined) | 10.3 min
27 | Cc1nc(N(C)C)nc(OC(=O)N(C)C)c1C | 7.91 min
28 | CCNc1nc(NC(C)(C)C)nc(OC)n1 | 8.88 min
29 | CC1CCCC(=O)CCCC=Cc2cc(O)cc(O)c2C(=O)O1 (centres undefined) | 9.87 min
30 | CC(C)N1C(=O)c2ccccc2NS1(=O)=O | 8.26 min
31 | C#CCOS(=O)OC1CCCCC1Oc1ccc(C(C)(C)C)cc1 (centres undefined) | 10.9 min
32 | COC(=O)NC(=S)Nc1ccccc1NC(=S)NC(=O)OC | 8.31 min
33 | C=CCC1=C(C)C(OC(=O)C2C(C=C(C)C)C2(C)C)CC1=O (centres undefined) | 10.8 min
34 | CC1=CC2OC3C(O)CC(C)(C34CO4)C2(CO)C(O)C1=O (centres undefined) | 9.63 min
35 | CCOc1cc(OP(=S)(OC)OC)nc(CC)n1 | 10.2 min
36 | CCCOC(=O)NCCCN(C)C | 5.17 min
37 | CNC(=O)ON=C(C)C(C)S(C)=O (centres undefined) | 3.06 min
38 | COCCOc1ccccc1S(=O)(=O)NC(=O)Nc1nc(OC)nc(OC)n1 | 8.14 min
39 | Cc1ccc(N=CN(C)C=Nc2ccc(C)cc2C)c(C)c1 | 9.09 min
40 | CC1(C)C(C(=O)OC(C#N)c2cccc(Oc3ccccc3)c2)C1(C)C (centres undefined) | 11 min
41 | CCOP(=S)(OCC)SCSCC | 8.44 min
42 | CCOP(=O)(NC(C)C)Oc1ccc(S(C)(=O)=O)c(C)c1 (centres undefined) | 8.51 min
43 | CNC(=O)CSP(=S)(OC)OC | 7.18 min
44 | CON(C(=O)c1cc(C)oc1C)C1CCCCC1 | 10.2 min
45 | CNC(=O)C(C)SCCSP(=O)(OC)OC (centres undefined) | 7.11 min
46 | CCOP(=O)(NC(C)C)Oc1ccc(SC)c(C)c1 (centres undefined) | 9.99 min
47 | CCCN(CC)CC1COC2(CCC(C(C)(C)C)CC2)O1 (centres undefined) | 9.58 min
48 | CCOP(=S)(OCC)SCCS(=O)CC (centres undefined) | 8.89 min

Row | SMILES | LC retention time
49 | CNC(=O)ON=C(C)SC | 6.05 min
50 | CCN(CC)c1nc(C)cc(OP(=S)(OC)OC)n1 | 10.3 min
51 | CCOC(=O)Nc1cccc(OC(=O)Nc2ccccc2)c1 | 9.23 min
52 | COP(=S)(NC(C)C)Oc1ccccc1C(=O)OC(C)C (centres undefined) | 8.98 min
53 | CNc1nc(NC(C)C)nc(SC)n1 | 8.62 min
54 | CCS(=O)Cc1ccccc1OC(=O)NC (centres undefined) | 7.09 min
55 | COc1cc2c(c3oc(=O)c4c(c13)CCC4=O)C1C=COC1O2 (centres undefined) | 8.44 min
56 | CNC(=O)ON=CC(C)(C)S(C)=O (centres undefined) | 3.06 min
57 | CNC(=O)ON=CC(C)(C)SC | 7.89 min
58 | COC(=O)c1sccc1S(=O)(=O)NC(=O)Nc1nc(C)nc(OC)n1 | 8.32 min
59 | CC(C)OC(=O)Nc1ccccc1 | 8.61 min
60 | CC(=O)OCC12CC(OC(=O)CC(C)C)C(C)=CC1OC1C(O)C(OC(C)=O)C2(C)C12CO2 (centres undefined) | 9.3 min
61 | CCOP(=S)(OCC)Oc1ccc(=O)n(-c2ccccc2)n1 | 9.71 min
62 | COC(=O)c1ccccc1CS(=O)(=O)NC(=O)Nc1nc(OC)cc(OC)n1 | 9.3 min
63 | CCS(=O)(=O)Cc1ccccc1OC(=O)NC | 7 min
64 | CNC(=O)C=C(C)OP(=O)(OC)OC | 6.58 min
65 | CNC(=O)ON=C(CSC)C(C)(C)C | 8.21 min
66 | Cc1ccc(C(C)NC(=O)C(NC(=O)OC(C)C)C(C)C)cc1 (centres undefined) | 9.73 min
67 | CCOC(=O)c1cn2nc(OP(=S)(OCC)OCC)cc2nc1C | 10.4 min
68 | CCCCc1c(C)nc(NCC)nc1OS(=O)(=O)N(C)C | 9.87 min
69 | CCOP(=O)(SC(C)CC)N1CCSC1=O (centres undefined) | 8.81 min
70 | c1ccc(Nc2ccccc2)cc1 | 6.3 min
71 | CCCSP(=O)(OCC)SCCC | 9.93 min
72 | COP(=S)(OC)Oc1ccc([N+](=O)[O-])cc1 | 9.96 min

Row | SMILES | LC retention time
73 | CCS(=O)(=O)c1cccnc1S(=O)(=O)NC(=O)Nc1nc(OC)cc(OC)n1 | 8.71 min
74 | CCOC(=O)CC(SP(=S)(OC)OC)C(=O)OCC (centres undefined) | 9.59 min
75 | COC(=O)Nc1nc2ccccc2[nH]1 | 6.3 min
76 | CN(C)c1nc(=O)n(C2CCCCC2)c(=O)n1C | 8.61 min
77 | CCCCC(C)C(OC(=O)CC(CC(=O)O)C(=O)O)C(CC(C)CCCCCCC(O)CC(O)C(C)N)OC(=O)CC(CC(=O)O)C(=O)O (centres undefined) | 7.46 min
78 | CNC(=O)Oc1cc(C)c(S(C)(=O)=O)c(C)c1 | 6.96 min
79 | CC(COc1ccc(Oc2ccccc2)cc1)Oc1ccccn1 (centres undefined) | 10.9 min
80 | CNC(=O)ON=CC(C)(C)S(C)(=O)=O | 7.37 min
81 | CCCN(CCC)C(=O)SCC | 10.1 min
82 | COc1cc2c(c3oc(=O)c4c(c13)CCC4=O)C1CCOC1O2 (centres undefined) | 8.26 min
83 | CCOc1ccc(NC(=O)OC(C)C)cc1OCC | 9.37 min
84 | CCOP(=S)(OCC)SCSP(=S)(OCC)OCC | 10.8 min
85 | CC(C)=CC1C(C(=O)OCN2C(=O)C3=C(CCCC3)C2=O)C1(C)C (centres undefined) | 10.7 min
86 | CCOP(=S)(OCC)Oc1cnc2ccccc2n1 | 10.2 min
87 | CCNc1nc(NC(C)(C)C)nc(SC)n1 | 9.65 min
88 | CCOc1ccc2c(c1)C(C)=CC(C)(C)N2 | 9.07 min
89 | COP(=S)(OC)SCC(=O)N(C)C=O | 8.06 min
90 | CNC(=O)Oc1cccc(N=CN(C)C)c1 | 7.91 min
91 | CCOP(=S)(OCC)Oc1ccc([N+](=O)[O-])cc1 | 9.21 min
92 | COc1cc2c(c3oc(=O)c4c(c13)CCOC4=O)C1C=COC1O2 (centres undefined) | 8 min
93 | CCOP(=S)(OCC)Oc1ccc(S(C)=O)cc1 (centres undefined) | 9.1 min
94 | CCS(=O)CCSP(=O)(OC)OC (centres undefined) | 6.04 min
95 | COP(=O)(OC)Oc1ccc([N+](=O)[O-])cc1 | 8.12 min
96 | COC(=O)c1ccccc1S(=O)(=O)NC(=O)Nc1nc(C)nc(OC)n1 | 8.43 min

Row | SMILES | LC retention time
97 | CCOP(=S)(OCC)SCn1nnc2ccccc2c1=O | 9.92 min
98 | CNC(=O)Oc1cccc2ccccc12 | 8.61 min
99 | CCOP(=S)(OCC)SCCS(=O)(=O)CC | 8.89 min
100 | COP(=S)(OC)SCN1C(=O)c2ccccc2C1=O | 9.39 min
101 | CC(=O)OCC12CC(OC(=O)CC(C)C)C(C)=CC1OC1C(O)C(O)C2(C)C12CO2 (centres undefined) | 8.35 min
102 | CSc1nnc(C(C)(C)C)c(=O)n1N | 8.41 min
103 | Cc1ccc(OP(=O)(Oc2ccc(C)cc2)Oc2ccc(C)cc2)cc1 | 11.9 min
104 | Cc1cc(C2CC2)nc(Nc2ccccc2)n1 | 10.3 min
105 | CCCCN(CCCC)SN(C)C(=O)Oc1cccc2c1OC(C)(C)C2 | 11.1 min
106 | COP(=O)(OC)OC(C)=CC(=O)N(C)C | 6.63 min
107 | CCOP(=S)(NC(C)C)Oc1ccccc1C(=O)OC(C)C (centres undefined) | 7.91 min
108 | CNC(=O)CSP(=O)(OC)OC | 1.79 min
109 | CNC(=O)Oc1cc(C)c(S(C)=O)c(C)c1 (centres undefined) | 7.09 min
110 | CCS(=O)(=O)CCSP(=O)(OC)OC | 6.13 min
111 | CC(Cc1ccc(C(C)(C)C)cc1)CN1CC(C)OC(C)C1 (centres undefined) | 9.38 min
112 | Cc1cc(C)nc(Nc2ccccc2)n1 | 9.6 min
113 | CON=C(C(=O)OC)c1ccccc1COc1ccccc1C | 10.1 min
114 | CC1=NNC(=O)N(N=Cc2cccnc2)C1 | 1.58 min
115 | CCCN(CCC)C(=O)SCc1ccccc1 | 10.6 min
116 | CCC(CC)Nc1c([N+](=O)[O-])cc(C)c(C)c1[N+](=O)[O-] | 11.1 min
117 | CCOP(=S)(Oc1ccc([N+](=O)[O-])cc1)c1ccccc1 (centres undefined) | 9.71 min
118 | CCCSP(=S)(OCC)Oc1ccc(SC)cc1 (centres undefined) | 11 min
119 | Cc1nn(C)c(Oc2ccccc2)c1C=NOCc1ccc(C(=O)OC(C)(C)C)cc1 | 11.2 min
